Laboratory results from publication PMC6372683, “Mechanism of the natural product moracin-O derived MO-460 and its targeting protein hnRNPA2B1 on HIF-1α inhibition” (Experimental & Molecular Medicine, 2019).
pKd: −log10 of the molar value. “Also recorded” adds a separate entry of the source.

What was measured:
[1] = biological target: T1, hnRNPA2B1 GRD3 (301–353 aa) (Homo sapiens, UniProt P22626); assay: BLItz association-dissociation binding assay, GST-fused GRD3; conditions: Con. 5 uM
T1 construct: hnRNPA2B1(301-353aa); made in house; host or cells: bacteria (pGEX6P-1 vector)
T1 sequence (P22626 301-353): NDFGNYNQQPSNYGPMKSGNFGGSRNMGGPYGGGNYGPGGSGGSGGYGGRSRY
Experimental: (§1) The binding capacity of hnRNPA2B1 to Biotin-MO-460 was also analyzed using a BLItz™ (Fortebio, Inc., CA, US) instrument with a streptavidin-coated biosensor tip (Pall, USA). The streptavidin-coated tips were pre-wetted for 10 min in an incubation buffer (10 mM HEPES pH 7.4, 1% BSA and 0.05% Tween 20). The streptavidin-coated tips were immobilized with 1 μM Biotin-MO-460 in incubation buffer (10 mM HEPES pH 7.4, 1% BSA and 0.05% Tween 20) for 5 min. The biosensor was washed with HEPES (pH 7.4) and incubated with 250-, 500- and 1,000-nM concentrations of the full-length and truncated hnRNPA2B1 proteins for 3 min. The concentrations were then incubated with HEPES for another 3 min to desorb the protein. Analysis of the accurate and precise kinetic constants was performed by the BLItz data analysis software (BLItz Pro 1.1).

[2] = biological target: T2, hnRNPA2B1 GRD (202–353 aa) (Homo sapiens, UniProt P22626); assay: BLItz association-dissociation binding assay, GRD of hnRNPA2B1; conditions: 6XHis tagged protein, Con. 5 uM, biotin-MO-460 on streptavidin tip
T2 construct: 202–353 aa; His; made in house; host or cells: bacteria (pET28A vector)
Experimental: as §1, with “The biosensor was washed with HEPES (pH 7.4) and incubated with 250-, 500- and 1,000-nM concentrations of the full-length and truncated hnRNPA2B1 proteins for 3 min.” left out

[3] = tested on: Hep3B cells; assay: Stress granule formation (immunostaining of hnRNPA2B1 and TIA-1); type: cell-based, human; conditions: mimetic hypoxia
[4] = biological target: T3, full-length hnRNPA2B1 (1–353 aa) (Homo sapiens, UniProt P22626); assay: BLItz association-dissociation binding assay, full-length hnRNPA2B1; conditions: 6XHis tagged protein, Con. 5 uM, biotin-MO-460 on streptavidin tip
T3 construct: 1–353 aa; His; made in house; host or cells: bacteria (pET28A vector)
Experimental: as §1, with “The biosensor was washed with HEPES (pH 7.4) and incubated with 250-, 500- and 1,000-nM concentrations of the full-length and truncated hnRNPA2B1 proteins for 3 min.” left out

[5] = tested on: HIF-1α in Hep3B cells; assay: HIF-1α protein accumulation under CoCl2 mimetic hypoxia (immunostaining and western blotting); type: cell-based, human
[6] = tested on: HIF-1α; assay: HIF-1α accumulation under real hypoxia (1% oxygen), western blotting and immunostaining; type: cell-based, human; conditions: 24 h
Experimental: For immunofluorescence observation, Hep3B cells were seeded on microplates at 2 or 5 × 10^4 cells/mL and cultured for 18 h. […] The medium in the microplate wells was then removed and cells were fixed with 3.7% formaldehyde in PBS for 15 min then permeabilized for 5 min with 100% cold MeOH. Cells were washed with PBS containing 1% bovine serum albumin (PBS-1% BSA), and then treated with 5% bovine serum albumin for 20 min. The cells in each well were treated with HIF-1α antibody in PBS-0.1% BSA then placed in a humidified atmosphere of 5% CO2 at 37 °C and incubated for 60 min. After being washed with PBS-0.1% BSA, treated wells of HIF-1α were incubated with Alexa Fluor 488-conjugated mouse anti-IgG antibody in PBS-0.1% BSA then incubated at room temperature for 60 min. After being washed with PBS-0.1% BSA, the dish wells were overlaid with Hoechst 33342 for 5 min at room temperature and then washed with PBS-0.1% BSA. Fluorescence was photographed with an inverted ECLIPSE Ti-U microscope (Nikon Corporation, Japan).

[7] = biological target: T4, hnRNPA2B1 (Homo sapiens, UniProt P22626); assay: In vitro pull-down assay of purified recombinant hnRNPA2B1; type: binding; conditions: excess amount of MO-460 added
T4 construct: made in house; host or cells: HEK293T
Experimental: HEK293T cells were cultured in DMEM medium supplemented with 10% fetal bovine serum in a humidified atmosphere containing 5% CO2. The cells were transfected with C-terminal Myc/DDK-tagged hnRNPA2B1 constructs. Recombinant protein was captured with an anti-DDK affinity column followed by conventional chromatography. A streptavidin-conjugated biotin linker was used as a control or streptavidin-conjugated biotinylated MO-460 were treated with 5% bovine serum albumin in PBS for 1 h at room temperature. Myc/DDK-tagged hnRNPA2B1 protein (1 ug) was incubated with streptavidin-conjugated biotin linker (1,200 μM) or streptavidin-conjugated biotinylated MO-460 (400 μM) in the presence or absence of MO-460 (400 μg) in binding buffer for 6 h at 4 °C. The reacted beads were washed with binding buffer [10 mM HEPES pH 7.9, 10 mM KCl, 0.1 mM EGTA, 0.1 mM EDTA, 0.5 mM PMSF, 0.025% 2-mercaptoethanol, and protease inhibitor cocktail] and the bound proteins eluted with SDS/PAGE sample buffer. Proteins were resolved by SDS/PAGE and detected by silver staining.

[8] = tested on: hnRNPA2B1 protein and HIF-1α mRNA complex; assay: RNA-immunoprecipitation of hnRNPA2B1 with HIF-1α mRNA; type: cell-based, human; conditions: Hep3B cells, mimetic hypoxia, 50 μM, 24 h
Experimental: Hep3B cells were cultured at 37 °C in a 5% atmospheric concentration of CO2 and 200 μM of CoCl2 in the presence or absence of MO-460 (50 μM) and the cells harvested after 24 h. Total lysates of Hep3B were prepared in nuclear isolation buffer [128 mM sucrose, 40 mM Tris-HCl pH 7.5, 20 mM MgCl2, 4% Triton-X100]. After clarifying by centrifugation at 2500× g for 15 min at 4 °C the nuclear pellet was resuspended in RIP buffer [150 mM KCl, 25 mM Tris-HCl pH 7.5, 5 mM EDTA, 0.5 mM DTT, 0.5% Triton-X100, and protease inhibitor cocktail], and then incubated with 4 μg of either control IgG or the anti-hnRNPA2B1 antibody. After 1.5 h of incubation, protein-G agarose beads (Santa Cruz Biotechnologies, Santa Cruz, CA) were added and then precipitated. RNAs were purified from 90% of the samples. Eluted RNAs were complemented by reverse transcriptase with random primers. cDNAs were used in the subsequent PCR reactions with the indicated primer sets. The resulting PCR products were separated on a 1.5% agarose gel. The other 10% of the samples from which RNA was not collected were separated by SDS-PAGE and then immunoblotted with anti-hnRNPA2B1 antibody.

T2 sequence (P22626 202-353): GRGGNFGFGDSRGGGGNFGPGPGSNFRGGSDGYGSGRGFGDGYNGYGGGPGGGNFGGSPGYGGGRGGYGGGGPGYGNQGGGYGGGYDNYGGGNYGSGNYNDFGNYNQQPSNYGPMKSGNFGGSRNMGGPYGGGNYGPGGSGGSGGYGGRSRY
T3 sequence (P22626 whole entry, the tested form may be a part): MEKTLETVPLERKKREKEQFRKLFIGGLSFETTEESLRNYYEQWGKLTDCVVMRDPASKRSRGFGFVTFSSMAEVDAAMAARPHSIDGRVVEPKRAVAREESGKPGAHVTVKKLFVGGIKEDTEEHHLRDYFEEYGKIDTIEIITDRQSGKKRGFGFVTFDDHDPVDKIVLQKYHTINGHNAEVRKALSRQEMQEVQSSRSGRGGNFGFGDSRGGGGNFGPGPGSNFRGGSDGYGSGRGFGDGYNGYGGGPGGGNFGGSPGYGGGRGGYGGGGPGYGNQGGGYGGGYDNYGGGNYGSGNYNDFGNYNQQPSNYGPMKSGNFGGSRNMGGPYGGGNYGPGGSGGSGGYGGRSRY
T4 sequence (P22626 whole entry): as the sequence (P22626 whole entry, the tested form may be a part) above

CC(C)(O)[C@H]1Cc2cc3cc(-c4ccc(O)cc4)oc3cc2O1 [MO-460, (R)-4-[6-(1-Hydroxy-1-methylethyl)-5,6-dihydro-benzo[1,2-b;5,4-b’]difuran-2-yl]-phenol]
pKd [1]: 6.52
pKd [2]: 5.18
stress granule formation, co-localization with TIA-1 [3]: causes formation of cytoplasmic dots in hnRNPA2B1
pKd [4]: 4.94
accumulation of HIF-1α protein ([5]; CoCl2 mimetic hypoxia, 24 h): inhibits the accumulation of HIF-1α protein; also recorded: reduced the level of HIF-1α protein in a concentration-dependent manner; also recorded: completely eliminated the accumulation of HIF-1α
amount of hnRNPA2B1 ([5]; western blot): no effect
HIF-1α accumulation [6]: reduction in HIF-1α accumulation
interaction between hnRNPA2B1 and biotin-MO-460 on competition [7]: eliminated
interaction between hnRNPA2B1 and HIF-1α mRNA [8]: abolished
